The values below come from ChEMBL document CHEMBL4020713, “Identification of novel 2-(benzo[d]isoxazol-3-yl)-2-oxo-N-phenylacetohydrazonoyl cyanide analoguesas potent EPAC antagonists” (Eur J Med Chem, 2017).

In assay [1] the target is T1, Rap guanine nucleotide exchange factor 3 (Homo sapiens, UniProt O95398).
T1 sequence (O95398 whole entry): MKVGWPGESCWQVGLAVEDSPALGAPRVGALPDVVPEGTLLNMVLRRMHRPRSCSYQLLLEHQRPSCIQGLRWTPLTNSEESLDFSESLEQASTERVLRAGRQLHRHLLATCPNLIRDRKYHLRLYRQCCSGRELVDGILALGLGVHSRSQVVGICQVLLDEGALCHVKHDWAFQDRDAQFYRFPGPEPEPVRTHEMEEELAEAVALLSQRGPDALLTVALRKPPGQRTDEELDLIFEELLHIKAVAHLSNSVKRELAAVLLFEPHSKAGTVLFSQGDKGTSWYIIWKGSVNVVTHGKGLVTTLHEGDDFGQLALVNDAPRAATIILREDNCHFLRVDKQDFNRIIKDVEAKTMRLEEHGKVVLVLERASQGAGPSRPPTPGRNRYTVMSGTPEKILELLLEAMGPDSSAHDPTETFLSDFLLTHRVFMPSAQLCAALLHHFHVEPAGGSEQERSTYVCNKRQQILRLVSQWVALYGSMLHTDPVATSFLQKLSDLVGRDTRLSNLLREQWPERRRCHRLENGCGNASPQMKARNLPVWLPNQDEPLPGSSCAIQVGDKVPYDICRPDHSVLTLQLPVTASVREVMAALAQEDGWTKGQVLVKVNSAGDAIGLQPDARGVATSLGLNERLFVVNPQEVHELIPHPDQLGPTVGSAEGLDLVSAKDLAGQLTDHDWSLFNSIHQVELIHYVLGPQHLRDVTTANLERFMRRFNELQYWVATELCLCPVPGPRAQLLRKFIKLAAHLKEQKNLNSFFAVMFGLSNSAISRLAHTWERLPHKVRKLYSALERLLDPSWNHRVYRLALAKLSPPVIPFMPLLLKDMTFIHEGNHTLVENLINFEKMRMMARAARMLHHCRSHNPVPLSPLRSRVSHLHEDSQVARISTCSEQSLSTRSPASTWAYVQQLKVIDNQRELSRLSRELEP
Kind of assay: Antagonist activity at recombinant human full length EPAC1 assessed as inhibition of EPAC1-mediated Rap1B (1 to 167 residues)-BODIPY GDP nucleotide exchange activity in presence of 20 uM cAMP.

Assay [2] concerns the target T2, Rap guanine nucleotide exchange factor 4 (Mus musculus, UniProt Q9EQZ6).
T2 sequence (Q9EQZ6 whole entry): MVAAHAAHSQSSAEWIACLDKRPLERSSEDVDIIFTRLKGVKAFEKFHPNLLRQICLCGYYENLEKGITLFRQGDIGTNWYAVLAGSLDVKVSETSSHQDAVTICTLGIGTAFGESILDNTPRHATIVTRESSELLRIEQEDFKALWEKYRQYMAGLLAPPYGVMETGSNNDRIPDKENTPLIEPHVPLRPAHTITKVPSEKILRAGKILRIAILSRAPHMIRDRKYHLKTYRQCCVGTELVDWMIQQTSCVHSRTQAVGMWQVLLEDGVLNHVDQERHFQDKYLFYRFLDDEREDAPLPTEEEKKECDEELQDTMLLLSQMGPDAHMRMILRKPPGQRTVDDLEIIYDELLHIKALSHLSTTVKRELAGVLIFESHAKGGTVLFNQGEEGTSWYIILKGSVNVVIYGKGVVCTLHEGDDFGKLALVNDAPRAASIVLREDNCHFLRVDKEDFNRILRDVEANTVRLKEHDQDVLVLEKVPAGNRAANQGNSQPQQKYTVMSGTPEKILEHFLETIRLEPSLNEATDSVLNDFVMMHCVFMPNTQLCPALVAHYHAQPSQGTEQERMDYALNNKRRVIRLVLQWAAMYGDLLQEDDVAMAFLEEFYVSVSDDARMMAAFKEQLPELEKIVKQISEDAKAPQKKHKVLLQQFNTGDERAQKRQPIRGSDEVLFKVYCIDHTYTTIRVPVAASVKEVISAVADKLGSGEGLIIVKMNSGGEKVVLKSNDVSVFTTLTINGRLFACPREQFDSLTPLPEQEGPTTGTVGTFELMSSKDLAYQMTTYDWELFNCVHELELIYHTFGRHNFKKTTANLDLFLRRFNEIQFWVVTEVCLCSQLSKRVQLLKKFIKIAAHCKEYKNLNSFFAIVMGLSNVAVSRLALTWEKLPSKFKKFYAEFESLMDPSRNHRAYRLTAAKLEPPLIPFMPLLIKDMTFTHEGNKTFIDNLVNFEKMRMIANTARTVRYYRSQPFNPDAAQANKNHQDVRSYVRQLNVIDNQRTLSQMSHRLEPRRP
Put plainly: Antagonist activity at mouse EPAC2 assessed as inhibition of EPAC2-mediated Rap1B (1 to 167 residues)-BODIPY GDP nucleotide exchange activity.

Assay [3] in a line: Ratio of IC50 for recombinant human full length EPAC1 to IC50 for mouse EPAC2.

On to `CC(C)(C)c1cc(C(=O)/C(C#N)=N/Nc2cc(Cl)c(Cl)c(Cl)c2)no1`, for which the IC50 (usually the midpoint of a concentration-inhibition curve) in assay [1] turned out to be 2.7 µM.

Regarding `CC(C)(C)c1ccc(-c2cc(C(=O)/C(C#N)=N/Nc3cc(C(F)(F)F)cc(C(F)(F)F)c3)no2)cc1`, the IC50 in assay [1] worked out at 11.9 µM.

Take `N#C/C(=N\Nc1cc(Cl)cc(C(F)(F)F)c1)C(=O)c1noc2ccccc12`: the half-maximal inhibitory concentration (IC50) in assay [2] amounted to 2.2 µM; in assay [1], 4.6 µM.

Regarding `N#C/C(=N\Nc1cc(Cl)cc(C(F)(F)F)c1)C(=O)c1cc(-c2ccccc2)on1`, in assay [1], the IC50 turned out to be 9.5 µM.

As for `CC(C)(C)c1ccc(-c2cc(C(=O)/C(C#N)=N/Nc3ccc(Cl)c(C(F)(F)F)c3)no2)cc1`, the half-maximal inhibitory concentration (IC50) in assay [2] turned out to be 2.2 µM; in assay [1], 7.3 µM.

Turning to `N#C/C(=N\Nc1cc(C(F)(F)F)cc(C(F)(F)F)c1)C(=O)c1cc(-c2ccccc2)on1`, the IC50 stood at 3.3 µM in assay [2] and 7.2 µM in assay [1].

For `N#C/C(=N\Nc1ccc(Cl)c(C(F)(F)F)c1)C(=O)c1cc(-c2ccco2)on1`, the 50% inhibitory concentration (IC50) in assay [2] came to 2.3 µM; in assay [1] it was 4.2 µM.

Take `N#C/C(=N\Nc1cc(C(F)(F)F)cc(C(F)(F)F)c1)C(=O)c1noc2ccccc12`: the half-maximal inhibitory concentration (IC50) in assay [1] worked out at 6.7 µM.

Consider `CC(C)(C)c1ccc(-c2cc(C(=O)/C(C#N)=N/Nc3cccc(Cl)c3)no2)cc1`, for which, in assay [1], the IC50 was 8.6 µM.

`N#C/C(=N\Nc1ccc(Cl)c(C(F)(F)F)c1)C(=O)c1noc2ccccc12`: the IC50 in assay [2] was determined as 1.9 µM; in assay [1], 2.7 µM.

For the compound `COc1ccc(-c2cc(C(=O)/C(C#N)=N/Nc3ccc(Cl)c(C(F)(F)F)c3)no2)cc1`, the IC50 in assay [2] worked out at 4.5 µM.

On to `N#C/C(=N\Nc1ccc(Cl)c(C(F)(F)F)c1)C(=O)c1cc(-c2ccccc2)on1`, for which the IC50 in assay [2] was 2.3 µM.

Turning to `N#C/C(=N\Nc1ccc(F)c(Cl)c1)C(=O)c1noc2ccccc12`, the 50% inhibitory concentration (IC50) in assay [1] was determined as 8.5 µM.

In the case of `N#C/C(=N\Nc1ccc(Cl)c(C(F)(F)F)c1)C(=O)c1cc(-c2ccc(Cl)cc2)on1`, the concentration for half-maximal inhibition (IC50) in assay [1] amounted to 7.8 µM.

Turning to `CC(C)(C)c1cc(C(=O)/C(C#N)=N/Nc2cccc(Cl)c2)no1`, in assay [3], the Ratio IC50 was found to be 2.5. Also, the IC50 in assay [2] was found to be 4.4 µM.

Regarding `N#C/C(=N\Nc1cc(Cl)cc(C(F)(F)F)c1)C(=O)c1cc(-c2ccco2)on1`, the figures for the 50% inhibitory concentration (IC50) in assay [2] and in assay [1] were 2.2 µM and 3.6 µM, respectively.

As to `N#C/C(=N\Nc1cccc(Cl)c1)C(=O)c1cc(-c2ccco2)on1`, in assay [1], the IC50 was found to be 9.9 µM.

For `N#C/C(=N\Nc1cc(F)cc(Cl)c1)C(=O)c1noc2ccccc12`, in assay [1], the concentration for half-maximal inhibition (IC50) amounted to 18.9 µM.

For `N#C/C(=N\Nc1ccc(C(F)(F)F)c(Cl)c1)C(=O)c1noc2ccccc12`, the half-maximal inhibitory concentration (IC50) is 2.2 µM in assay [2] and 3 µM in assay [1].

In the case of `CC(C)(C)c1ccc(-c2cc(C(=O)/C(C#N)=N/Nc3ccc(C(F)(F)F)c(Cl)c3)no2)cc1`, the IC50 in assay [1] came to 9 µM.

In the case of `N#C/C(=N\Nc1cccc(Cl)c1)C(=O)c1cc(-c2ccccc2)on1`, the half-inhibitory concentration (IC50) in assay [1] is more than 150 µM.

On to `COc1ccc(-c2cc(C(=O)/C(C#N)=N/Nc3cc(C(F)(F)F)cc(C(F)(F)F)c3)no2)cc1`, for which the IC50 in assay [2] stood at 7 µM; in assay [1], 5.6 µM.

As to `COc1ccc(-c2cc(C(=O)/C(C#N)=N/Nc3cccc(Cl)c3)no2)cc1`, in assay [1], the half-inhibitory concentration (IC50) came out at 11.4 µM.

Take `N#C/C(=N\Nc1cccc(Cl)c1)C(=O)c1noc2ccccc12`: the half-inhibitory concentration (IC50) in assay [1] came to 13.2 µM.
